Measurements taken from PubChem BioAssay (NCI).
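Five compound concentrations were applied to cells in 96-well plates for 48 hours; endpoints were derived by simple linear interpolation of the resulting dose-response curve. TGI: concentration producing complete growth inhibition.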

Legend:
Test in all cases: inhibition of tumour cell growth, NCI panel, 48 h
[1] = system: 786-0 renal
[2] = system: A498 renal
[3] = system: A549 NSCLC
[4] = system: ACHN renal
[5] = system: CCRF-CEM leukemia
[6] = system: COLO 205 colon
[7] = system: DLD-1 colon
[8] = system: DMS 114 small cell lung
[9] = system: DMS 273 small cell lung
[10] = system: EKVX NSCLC
[11] = system: HCC-2998 colon
[12] = system: HCT-116 colon
[13] = system: HCT-15 colon
[14] = system: HL-60(TB) leukemia
[15] = system: HOP-62 NSCLC
[16] = system: HOP-92 NSCLC
[17] = system: HT29 colon
[18] = system: IGROV1 ovarian
[19] = system: K-562 leukemia
[20] = system: KM12 colon
[21] = system: KM20L2 colon
[22] = system: LOX IMVI melanoma
[23] = system: LXFL 529 NSCLC
[24] = system: M14 melanoma
[25] = system: M19-MEL melanoma
[26] = system: MALME-3M melanoma
[27] = system: MOLT-4 leukemia
[28] = system: NCI-H226 lung
[29] = system: NCI-H23 lung
[30] = system: NCI-H460 lung
[31] = system: OVCAR-3 ovarian
[32] = system: OVCAR-4 ovarian
[33] = system: OVCAR-8 ovarian
[34] = system: RPMI-8226 leukemia
[35] = system: RXF 393 renal
[36] = system: RXF-631 renal
[37] = system: SF-268 CNS
[38] = system: SF-295 CNS
[39] = system: SF-539 CNS
[40] = system: SK-MEL-2 melanoma
[41] = system: SK-MEL-28 melanoma
[42] = system: SK-MEL-5 melanoma
[43] = system: SK-OV-3 ovarian
[44] = system: SN12C renal
[45] = system: SNB-19 CNS
[46] = system: SNB-75 CNS
[47] = system: SNB-78 CNS
[48] = system: SW-620 colon
[49] = system: TK-10 renal
[50] = system: U251 CNS
[51] = system: UACC-257 melanoma
[52] = system: UACC-62 melanoma
[53] = system: UO-31 renal
[54] = system: CAKI-1 renal
[55] = system: HOP-18 NSCLC
[56] = system: NCI-H522 lung
[57] = system: OVCAR-5 ovarian
[58] = system: SR leukemia
[59] = system: XF 498 CNS

**Q.** What does the source list for `CCOC(=O)C1=C(C)C2C3C(=O)OC(=O)C3C1(C)C1C(=O)OC(=O)C21` (centres undefined)?
**A.** TGI [1]: > 100 µM; TGI [2]: > 100 µM; TGI [3]: > 100 µM; TGI [4]: > 100 µM; TGI [5]: > 100 µM; TGI [6]: > 100 µM; TGI [7]: > 100 µM; TGI [8]: > 100 µM; TGI [9]: > 100 µM; TGI [10]: > 100 µM; TGI [11]: > 100 µM; TGI [12]: > 100 µM; TGI [13]: > 100 µM; TGI [14]: > 100 µM; TGI [15]: > 100 µM; TGI [16]: > 100 µM; TGI [17]: > 100 µM; TGI [18]: > 100 µM; TGI [19]: > 100 µM; TGI [20]: > 100 µM; TGI [21]: > 100 µM; TGI [22]: > 100 µM; TGI [23]: > 100 µM; TGI [24]: > 100 µM; TGI [25]: > 100 µM; TGI [26]: > 100 µM; TGI [27]: > 100 µM; TGI [28]: > 100 µM; TGI [29]: > 100 µM; TGI [30]: > 100 µM; TGI [31]: > 100 µM; TGI [32]: > 100 µM; TGI [33]: > 100 µM; TGI [34]: > 100 µM; TGI [35]: > 100 µM; TGI [36]: > 100 µM; TGI [37]: > 100 µM; TGI [38]: > 100 µM; TGI [39]: > 100 µM; TGI [40]: > 100 µM; TGI [41]: > 100 µM; TGI [42]: > 100 µM; TGI [43]: > 100 µM; TGI [44]: > 100 µM; TGI [45]: > 100 µM; TGI [46]: > 100 µM; TGI [47]: > 100 µM; TGI [48]: > 100 µM; TGI [49]: > 100 µM; TGI [50]: > 100 µM; TGI [51]: > 100 µM; TGI [52]: > 100 µM; TGI [53]: > 100 µM

**Q.** Which results are given for `CCCCCCCCCCCCCCCCCC(=O)NCC(COP(=O)([O-])OCC[N+](C)(C)C)OCC` (centres undefined)?
**A.** TGI [3]: 33.4 µM; TGI [8]: 32.9 µM; TGI [9]: 0.284 µM; TGI [10]: 38.7 µM; TGI [21]: 0.71 µM; TGI [22]: 44.6 µM; TGI [26]: 36.1 µM; TGI [29]: 34.6 µM; TGI [36]: 37.5 µM; TGI [39]: 31.6 µM; TGI [41]: 32.5 µM; TGI [42]: 32.2 µM; TGI [43]: 33.7 µM; TGI [45]: 0.326 µM; TGI [51]: 33 µM; TGI [53]: 33.8 µM

**Q.** For `CC1(C)C2=CCCC(=O)[C@@]2(C)CC[C@@H]1O`, which TGI [1] is on record?
**A.** The TGI was greater than 100 µM.

**Q.** What about the TGI [3] of the same compound?
**A.** The TGI was greater than 100 µM.

**Q.** And the TGI [4]?
**A.** The TGI was greater than 100 µM.

**Q.** What about the TGI [54] of the same compound?
**A.** The TGI was greater than 100 µM.

**Q.** And the TGI [5]?
**A.** The TGI was greater than 100 µM.

**Q.** What about the TGI [6] of the same compound?
**A.** Its TGI is greater than 100 µM.

**Q.** What about the TGI [7] of the same compound?
**A.** Its TGI is greater than 100 µM.

**Q.** What about the TGI [8] of the same compound?
**A.** The TGI was greater than 100 µM.

**Q.** What about the TGI [9] of the same compound?
**A.** The TGI was greater than 100 µM.

**Q.** What about the TGI [10] of the same compound?
**A.** The TGI was greater than 100 µM.

**Q.** And the TGI [11]?
**A.** Its TGI is greater than 100 µM.

**Q.** What about the TGI [12] of the same compound?
**A.** Its TGI is greater than 100 µM.

**Q.** And the TGI [14]?
**A.** The TGI was greater than 100 µM.

**Q.** And the TGI [55]?
**A.** Its TGI is greater than 100 µM.

**Q.** What about the TGI [15] of the same compound?
**A.** The TGI was greater than 100 µM.

**Q.** What about the TGI [16] of the same compound?
**A.** The TGI was greater than 100 µM.

**Q.** What about the TGI [17] of the same compound?
**A.** The TGI was greater than 100 µM.

**Q.** And the TGI [18]?
**A.** Its TGI is greater than 100 µM.

**Q.** And the TGI [19]?
**A.** The TGI was greater than 100 µM.

**Q.** What about the TGI [20] of the same compound?
**A.** The TGI was greater than 100 µM.

**Q.** And the TGI [21]?
**A.** Its TGI is greater than 100 µM.

**Q.** What about the TGI [22] of the same compound?
**A.** The TGI was greater than 100 µM.

**Q.** And the TGI [23]?
**A.** The TGI was greater than 100 µM.

**Q.** What about the TGI [24] of the same compound?
**A.** Its TGI is greater than 100 µM.

**Q.** What about the TGI [25] of the same compound?
**A.** The TGI was greater than 100 µM.

**Q.** What about the TGI [27] of the same compound?
**A.** The TGI was greater than 100 µM.

**Q.** What about the TGI [28] of the same compound?
**A.** The TGI was greater than 100 µM.

**Q.** What about the TGI [29] of the same compound?
**A.** The TGI was greater than 100 µM.

**Q.** And the TGI [30]?
**A.** The TGI was greater than 100 µM.

**Q.** And the TGI [56]?
**A.** The TGI was greater than 100 µM.

**Q.** What about the TGI [31] of the same compound?
**A.** The TGI was greater than 100 µM.

**Q.** What about the TGI [32] of the same compound?
**A.** Its TGI is greater than 100 µM.

**Q.** What about the TGI [57] of the same compound?
**A.** The TGI was greater than 100 µM.

**Q.** What about the TGI [33] of the same compound?
**A.** Its TGI is greater than 100 µM.

**Q.** What about the TGI [34] of the same compound?
**A.** The TGI was greater than 100 µM.

**Q.** And the TGI [35]?
**A.** Its TGI is greater than 100 µM.

**Q.** And the TGI [37]?
**A.** The TGI was greater than 100 µM.

**Q.** What about the TGI [38] of the same compound?
**A.** The TGI was greater than 100 µM.

**Q.** And the TGI [39]?
**A.** The TGI was greater than 100 µM.

**Q.** And the TGI [40]?
**A.** Its TGI is greater than 100 µM.

**Q.** And the TGI [41]?
**A.** The TGI was greater than 100 µM.

**Q.** And the TGI [42]?
**A.** Its TGI is greater than 100 µM.

**Q.** What about the TGI [43] of the same compound?
**A.** Its TGI is greater than 100 µM.

**Q.** And the TGI [44]?
**A.** Its TGI is greater than 100 µM.

**Q.** And the TGI [45]?
**A.** The TGI was greater than 100 µM.

**Q.** What about the TGI [46] of the same compound?
**A.** Its TGI is greater than 100 µM.

**Q.** And the TGI [47]?
**A.** Its TGI is greater than 100 µM.

**Q.** And the TGI [58]?
**A.** The TGI was greater than 100 µM.

**Q.** What about the TGI [48] of the same compound?
**A.** Its TGI is greater than 100 µM.

**Q.** And the TGI [49]?
**A.** The TGI was greater than 100 µM.

**Q.** What about the TGI [50] of the same compound?
**A.** The TGI was greater than 100 µM.

**Q.** What about the TGI [51] of the same compound?
**A.** The TGI was greater than 100 µM.

**Q.** What about the TGI [52] of the same compound?
**A.** The TGI was greater than 100 µM.

**Q.** And the TGI [53]?
**A.** Its TGI is greater than 100 µM.

**Q.** And the TGI [59]?
**A.** Its TGI is greater than 100 µM.
